Experimental data taken from patent US10376481B2, “Compounds and methods for inhibiting NHE-mediated antiport in the treatment of disorders associated with fluid retention or salt overload and gastrointestinal tract disorders” (ARDELYX, INC, priority 2012, dated 2019).

How the values were obtained:
human NHE3 = target: T1, human NHE3 (Homo sapiens, UniProt P48764); test: Cell-based assay of NHE-3 activity (human NHE3 inhibition assay); design: expressed in transfected cells; host or cells: Opossum kidney (OK) cells (ATCC), electroporated; settings: OK cells with human NHE-3 gene, BCECF pH recovery, 0-30 μM test compound; for IC50: read-out: Human NHE3 pIC50 (converted)
T1 sequence (P48764 26-834): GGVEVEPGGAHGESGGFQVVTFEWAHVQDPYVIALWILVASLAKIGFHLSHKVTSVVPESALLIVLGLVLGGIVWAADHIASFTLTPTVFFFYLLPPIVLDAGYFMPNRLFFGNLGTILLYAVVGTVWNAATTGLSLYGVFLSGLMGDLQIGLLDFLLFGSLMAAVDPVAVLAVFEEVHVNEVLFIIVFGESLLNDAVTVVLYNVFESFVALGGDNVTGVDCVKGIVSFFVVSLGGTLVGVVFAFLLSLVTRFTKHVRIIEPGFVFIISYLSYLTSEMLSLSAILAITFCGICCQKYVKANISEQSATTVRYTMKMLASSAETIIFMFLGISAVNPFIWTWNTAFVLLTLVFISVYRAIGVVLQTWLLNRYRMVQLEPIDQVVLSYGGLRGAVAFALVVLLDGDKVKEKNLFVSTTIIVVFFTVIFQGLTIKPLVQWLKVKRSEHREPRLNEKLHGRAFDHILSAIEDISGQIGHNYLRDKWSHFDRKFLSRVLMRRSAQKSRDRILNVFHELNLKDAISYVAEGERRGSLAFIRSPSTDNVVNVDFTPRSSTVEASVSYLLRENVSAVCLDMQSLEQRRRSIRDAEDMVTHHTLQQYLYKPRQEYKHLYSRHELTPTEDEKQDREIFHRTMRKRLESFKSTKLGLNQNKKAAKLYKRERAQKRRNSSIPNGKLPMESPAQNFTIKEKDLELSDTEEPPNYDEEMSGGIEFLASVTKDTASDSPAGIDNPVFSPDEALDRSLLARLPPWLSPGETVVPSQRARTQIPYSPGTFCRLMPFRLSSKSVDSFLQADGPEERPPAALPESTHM
Protocol: Rat or human NHE-3-mediated Na^+-dependent H^+ antiport was measured using a modification of the pH sensitive dye method originally reported by Paradiso (Proc. Natl. Acad. Sci. USA. (1984) 81(23): 7436-7440). Opossum kidney (OK) cells were obtained from the ATCC and propagated per their instructions. The rat NHE-3 gene (GenBank M85300) or the human NHE-3 gene (GenBank NM_004174.1) was introduced into OK cells via electroporation, and cells were seeded into 96 well plates and grown overnight. Medium was aspirated from the wells, cells were washed twice with NaCl-HEPES buffer (100 mM NaCl, 50 mM HEPES, 10 mM glucose, 5 mM KCl, 2 mM CaCl2, 1 mM MgCl2, pH 7.4), then incubated for 30 min at room temperature with NH4Cl-HEPES buffer (20 mM NH4Cl, 80 mM NaCl, 50 mM HEPES, 5 mM KCl, 2 mM CaCl2, 1 mM MgCl2, pH 7.4) containing 5 μM bis(acetoxymethyl) 3,3′-(3′,6′-bis(acetoxymethoxy)-5-((acetoxymethoxy)carbonyl)-3-oxo-3H-spiro[isobenzofuran-1,9′-xanthene]-2′,7′-diyl)dipropanoate (BCECF-AM). Cells were washed twice with Ammonium free, Na^+-free HEPES (100 mM choline, 50 mM HEPES, 10 mM glucose, 5 mM KCl, 2 mM CaCl2, 1 mM MgCl2, pH 7.4) and incubated in the same buffer for 10 minutes at room temperature to lower intracellular pH. […] Initial rates were plotted as the average 2 or more replicates, and pIC50 values were estimated using GraphPad Prism.

[1] = system: absorption of sodium from the intestinal lumen; test: Inhibition of intestinal sodium absorption: rat urinary sodium and fecal form 16 h post-dose; format: in vivo, Sprague-Dawley rats; settings: for FFS (fecal form score) / response vs control in vivo at 10 mg/kg: oral gavage 10 mg/kg; for FFS (fecal form score): 16 h post-dose, scale 1-5, group average; for response vs control in vivo at 10 mg/kg / response vs control in vivo at 3 mg/kg: urine 16 h post-dose, read-out: uNa Result, uNa (% of vehicle); for response vs control in vivo at 3 mg/kg: oral gavage 3 mg/kg
Protocol: Urinary sodium concentration and fecal form were measured to assess the ability of selected example compounds to inhibit the absorption of sodium from the intestinal lumen. Eight-week old Sprague-Dawley rats were purchased from Charles River Laboratories (Hollister, Calif.), were housed 2 per cage, and acclimated for at least 3 days before study initiation. Animals were fed Harlan Teklad Global 2018 rodent chow (Indianapolis, Ind.) and water ad libitum throughout the study and maintained in a standard light/dark cycle of 6 AM to 6 PM. On the day of the study, between 4 PM and 5 PM, a group of rats (n=6) were dosed via oral gavage with test compound or vehicle (water) at a volume of 10 mL/kg. After dose administration animals were placed in individual metabolic cages where they were also fed the same chow in meal form and watered ad libitum. At 16 h post-dose, the urine samples were collected and fecal form was assessed by two independent observations. Fecal forms were scored according to a common scale associated with increasing fecal water to the wettest observation in the cage's collection funnel (1, normal pellet; 2, pellet adhering to sides of collection funnel due to moisture; 3, loss of normal pellet shape; 4, complete loss of shape with a blotting pattern; 5, liquid fecal streams evident). A rat's fecal form score (FFS) was determined by averaging both observational scores for all rats within a group (n=6). The vehicle group average was 1. For urine samples, the volumes were determined gravimetrically and centrifuged at 3,600×g. The supernatants were diluted 100-fold in deionized Milli-Q water then filtered through a 0.2 μm GHP Pall AcroPrep filter plate (Pall Life Sciences, Ann Arbor, Mich.) prior to analysis by ion chromatography. Ten microliters of each filtered extract was injected onto a Dionex ICS-3000 ion chromatograph system (Dionex, Sunnyvale, Calif.). Cations were separated by an isocratic method using 25 mM methanesulfonic acid as the eluent on an IonPac CS12A 2 mm i.d.×250 mm, 8 μm particle size cation exchange column (Dionex). Sodium was quantified using standards prepared from a cation standard mix containing Li^+, Na^+, NH4^+, K^+, Mg^2+, and Ca^2+ (Dionex). The mean mass of sodium urinated for every group in the 16 h period was determined with the vehicle group usually urinating approximately 21 mg sodium. The urine Na (uNa) for rats in the test groups were expressed as a percentage of the vehicle mean and the means were compared to that of the vehicle group by utilizing a one-way analysis of variance coupled with a Dunnett's post hoc test.

Row | SMILES | Human NHE3 pIC50 (human NHE3) | FFS (fecal form score) [1] | response vs control in vivo at 10 mg/kg [1] [%] | IC50 (human NHE3) [µM] | response vs control in vivo at 3 mg/kg [1] [%]
1 | CN(C)[C@H]1Cc2c(Cl)cc(Cl)cc2[C@@H]1Oc1ccc(S(=O)(=O)NCCOCCOCCNC(=O)Nc2ccc(NC(=O)NCCOCCOCCNS(=O)(=O)c3ccc(O[C@H]4c5cc(Cl)cc(Cl)c5C[C@@H]4N(C)C)cc3)cc2)cc1 [Example 2, (S,S)—N,N′-(2,2′-(2,2′-(2,2′-(1,4-phenylenebis(azanediyl))bis(oxomethylene)bis(azanediyl)bis(ethane-2,1-diyl))bis(oxy)bis(ethane-2,1-diyl))bis(oxy)bis(ethane-2,1-diyl))bis(4-((1S,2S)-4,6-dichloro-2-(dimethylamino)-2,3-dihydro-1H-inden-1-yloxy)benzenesulfonamide)] | C (NHE3 pIC50 >7) |  |  |  | 
2 | O=C(NCCOCCOCCNS(=O)(=O)c1ccc(O[C@H]2c3ccccc3C[C@@H]2N2CCCCC2)cc1)c1ccc(C(=O)NCCOCCOCCNS(=O)(=O)c2ccc(O[C@H]3c4ccccc4C[C@@H]3N3CCCCC3)cc2)cc1 [Example 6, N1,N4-bis(2-(2-(2-(4-((1S,2S)-2-(piperidin-1-yl)-2,3-dihydro-1H-inden-1-yloxy)phenylsulfonamido)ethoxy)ethoxy)ethyl)terephthalamide] |  | 1 | 35 to 75 | < 0.1 | 
3 | CC(C)(C(=O)NCCOCCOCCOCCNS(=O)(=O)c1ccc(O[C@H]2c3ccccc3C[C@@H]2N2CCCCC2)cc1)C(=O)NCCOCCOCCOCCNS(=O)(=O)c1ccc(O[C@H]2c3ccccc3C[C@@H]2N2CCCCC2)cc1 [Example 7, 2,2-dimethyl-N1,N3-bis(2-(2-(2-(2-(4-((1S,2S)-2-(piperidin-1-yl)-2,3-dihydro-1H-inden-1-yloxy)phenylsulfonamido)ethoxy)ethoxy)ethoxy)ethyl)malonamide] |  |  | 35 to 75 | < 0.1 | 
4 | CN(C)[C@H]1Cc2c(Cl)cc(Cl)cc2[C@@H]1Oc1ccc(S(=O)(=O)NCCOCCOCCNC(=O)CCC(=O)NCCOCCOCCNS(=O)(=O)c2ccc(O[C@H]3c4cc(Cl)cc(Cl)c4C[C@@H]3N(C)C)cc2)cc1 [Example 8, N1,N4-bis(2-(2-(2-(4-((1S,2S)-4,6-dichloro-2-(dimethylamino)-2,3-dihydro-1H-inden-1-yloxy)phenylsulfonamido)ethoxy)ethoxy)ethyl)succinamide] |  |  |  | < 0.1 | 35 to 75
5 | NC(CCC(=O)NCCOCCOCCOCCNS(=O)(=O)c1ccc(O[C@H]2c3ccccc3C[C@@H]2N2CCCCC2)cc1)(CCC(=O)NCCOCCOCCOCCNS(=O)(=O)c1ccc(O[C@H]2c3ccccc3C[C@@H]2N2CCCCC2)cc1)CCC(=O)NCCOCCOCCOCCNS(=O)(=O)c1ccc(O[C@H]2c3ccccc3C[C@@H]2N2CCCCC2)cc1 [Example 10, 4-amino-4-(13-oxo-1-(4-((1S,2S)-2-(piperidin-1-yl)-2,3-dihydro-1H-inden-1-yloxy)phenylsulfonamido)-3,6,9-trioxa-12-azapentadecan-15-yl)-N1,N7-bis(2-(2-(2-(2-(4-((1S,2S)-2-(piperidin-1-yl)-2,3-dihydro-1H-inden-1-yloxy)phenylsulfonamido)ethoxy)ethoxy)ethoxy)ethyl)heptanediamide] |  |  |  | < 0.1 | 
6 | CN(C)[C@H]1Cc2c(Cl)cc(Cl)cc2[C@@H]1Oc1ccc(S(=O)(=O)NCCOCCOCCNC(=O)CCC(C)(CCC(=O)NCCOCCOCCNS(=O)(=O)c2ccc(O[C@H]3c4cc(Cl)cc(Cl)c4C[C@@H]3N(C)C)cc2)NC(=O)CCC(=O)O)cc1 [Example 12, 1-(4-((1S,2S)-4,6-dichloro-2-(dimethylamino)-2,3-dihydro-1H-inden-1-yloxy)phenylsulfonamido)-13-(3-(2-(2-(2-(4-((1S,2S)-4,6-dichloro-2-(dimethylamino)-2,3-dihydro-1H-inden-1-yloxy)phenylsulfonamido)ethoxy)ethoxy)ethylamino)-3-oxopropyl)-13-methyl-10,15-dioxo-3,6-dioxa-9,14-diazaoctadecan-18-oic Acid] |  |  |  | < 0.1 | 35 to 75
7 | O=C(NCCCCNC(=O)NCCOCCOCCNS(=O)(=O)c1ccc(O[C@H]2c3cc(Cl)ccc3C[C@@H]2N2CCCCC2)cc1)NCCOCCOCCNS(=O)(=O)c1ccc(O[C@H]2c3cc(Cl)ccc3C[C@@H]2N2CCCCC2)cc1 [Example 18] |  |  |  | < 0.1 | 
8 | O=C(NCCCCNC(=O)NCCOCCOCCNS(=O)(=O)c1ccc(O[C@H]2c3ccccc3C[C@@H]2N2CCCC2)cc1)NCCOCCOCCNS(=O)(=O)c1ccc(O[C@H]2c3ccccc3C[C@@H]2N2CCCC2)cc1 [Example 19] |  |  | 35 to 75 | > 10 | 
9 | CN(C)[C@H]1Cc2c(Cl)cc(Cl)cc2[C@@H]1Oc1ccc(S(=O)(=O)N(C)CCOCCOCCNC(=O)NCCCCNC(=O)NCCOCCOCCN(C)S(=O)(=O)c2ccc(O[C@H]3c4cc(Cl)cc(Cl)c4C[C@@H]3N(C)C)cc2)cc1 [Example 26] |  | 1 | 35 to 75 | < 0.1 | 
10 | CN(C)[C@H]1Cc2c(Cl)cc(Cl)cc2[C@@H]1Oc1ccc(S(=O)(=O)NCCOCCOCCNC(=O)Nc2ccc(NC(=O)NCCOCCOCCNS(=O)(=O)c3ccc(O[C@H]4c5cc(Cl)cc(Cl)c5C[C@@H]4N(C)C)cc3)cc2)cc1 [Example 27] |  | 1 | < 35 | < 0.1 | 
11 | N[C@@H]1CCCN([C@H]2Cc3ccccc3[C@@H]2Oc2ccc(S(=O)(=O)NCCOCCOCCNC(=O)NCCCCNC(=O)NCCOCCOCCNS(=O)(=O)c3ccc(O[C@H]4c5ccccc5C[C@@H]4N4CCC[C@@H](N)C4)cc3)cc2)C1 [Example 28] |  |  |  | 0.1 to 10 | 
12 | O=C(NCCCCNC(=O)NCCOCCOCCNS(=O)(=O)c1ccc(O[C@H]2c3ccccc3C[C@@H]2N2CC[C@@H](O)C2)cc1)NCCOCCOCCNS(=O)(=O)c1ccc(O[C@H]2c3ccccc3C[C@@H]2N2CC[C@@H](O)C2)cc1 [Example 31] |  |  |  | < 0.1 | 
